In ChEMBL document CHEMBL5104182, “Design and Synthesis of a 2-Amino-pyridine Derivative as a Potent CDK8 Inhibitor for Anti-colorectal Cancer Therapy” (J Med Chem, 2022):
The source made the active and inactive calls. The rule behind the calls is not given here.

Legend:
[1] = Toxicity in Balb/c mouse assessed as MPO level in serum at 1000 mg/kg, using gastric tube; type: organism-based; conditions: in vivo, po, route ig
[2] = Oral bioavailability in Sprague-Dawley rat at 10 mg/kg upto 24 hrs by HPLC analysis; type: ADME, organism-based; conditions: in vivo
[3] = AUC (0 to infinitive) in Sprague-Dawley rat at 2 mg/kg, iv upto 24 hrs by HPLC analysis; type: ADME, organism-based; parameters: time < 24 hrs, dose 2 mg/kg, route iv; conditions: in vivo
[4] = AUC (0 to infinitive) in Sprague-Dawley rat at 10 mg/kg, po upto 24 hrs by HPLC analysis; type: ADME, organism-based; parameters: dose 10 mg/kg, time < 24 hrs, route po; conditions: in vivo
[5] = Cmax in Sprague-Dawley rat at 2 mg/kg, iv upto 24 hrs by HPLC analysis; type: ADME, organism-based; parameters: dose 2 mg/kg, time < 24 hrs, route iv; conditions: in vivo
[6] = Cmax in Sprague-Dawley rat at 10 mg/kg, po upto 24 hrs by HPLC analysis; type: ADME, organism-based; parameters: time < 24 hrs, dose 10 mg/kg, route po; conditions: in vivo
[7] = MRT in Sprague-Dawley rat at 2 mg/kg, iv upto 24 hrs by HPLC analysis; type: ADME, organism-based; conditions: in vivo
[8] = Tmax in Sprague-Dawley rat at 10 mg/kg, po upto 24 hrs by HPLC analysis; type: ADME, organism-based; conditions: in vivo
[9] = Half life in Sprague-Dawley rat at 10 mg/kg, po upto 24 hrs by HPLC analysis; type: ADME, organism-based; conditions: in vivo
[10] = Toxicity in ICR mouse assessed as kidney damage at 1000 mg/kg, using gastric tube by H&E staining assay; type: organism-based; conditions: in vivo, po, route ig
[11] = Toxicity in ICR mouse assessed as lung damage at 1000 mg/kg, using gastric tube by H&E staining assay; type: organism-based; conditions: in vivo, po, route ig
[12] = Toxicity in ICR mouse assessed as spleen damage at 1000 mg/kg, using gastric tube by H&E staining assay; type: organism-based; conditions: in vivo, po, route ig
[13] = Toxicity in ICR mouse assessed as liver damage at 1000 mg/kg, using gastric tube by H&E staining assay; type: organism-based; conditions: in vivo, po, route ig
[14] = Toxicity in ICR mouse assessed as heart damage at 1000 mg/kg, using gastric tube by H&E staining assay; type: organism-based; conditions: in vivo, po, route ig
[15] = Toxicity in ICR mouse assessed as abnormal behavior at 1000 mg/kg, using gastric tube; type: organism-based; conditions: in vivo, po, route ig
CT26 [16] = assay: Antiproliferative activity against […] cells assessed as cell viability incubated for 48 hrs by MTT assay; type: functional; conditions: Mus musculus
[17] = Cytotoxicity against human GES1 cells assessed as cell viability incubated for 48 hrs by MTT assay; type: toxicity, cell-based
[18] = biological target: Cyclin-dependent kinase 7 (Homo sapiens, UniProt P50613); assay: Inhibition of CDK7 (unknown origin) assessed as inhibition rate
Homo sapiens = organism: Homo sapiens; assay: Selectivity ratio of IC50 for human CDK6 to IC50 for human CDK8
[19] = biological target: T1, Cyclin-dependent kinase 8 (Homo sapiens, UniProt P49336); assay: Binding affinity to CDK8 in human HCT-116 cells assessed as increase in degradation temperature of protein by CETSA (reference value: 49 degC); type: cell-based
[20] = biological target: T1, Cyclin-dependent kinase 8; assay: Inhibition of CDK8 in human HCT-116 cells assessed as inhibition of STAT1 phosphorylation at Ser727 by Western blot analysis; type: cell-based
[21] = biological target: T1, Cyclin-dependent kinase 8; assay: Inhibition of CDK8 in human HCT-116 cells assessed as inhibition of […] phosphorylation at Tyr701 by Western blot analysis; type: cell-based
[22] = biological target: T1, Cyclin-dependent kinase 8; assay: Binding affinity to CDK8-Flag (unknown origin) transfected in HEK293T cells; type: cell-based
HCT-116 [23] = assay: Decrease in Cyclin D1 expression in human HCT-116 cells at 1 to 4 uM incubated for 48 hrs by western blotting analysis; type: functional, cell-based; conditions: dose 1-4 µM
HCT-116 [24] = assay: Decrease in C-Myc expression in human HCT-116 cells at 1 to 4 uM incubated for 48 hrs by western blotting analysis; type: functional, cell-based; conditions: dose 1-4 µM
HCT-116 [25] = assay: Decrease in Lef expression in human HCT-116 cells at 1 to 4 uM incubated for 48 hrs by western blotting analysis; type: functional, cell-based; conditions: dose 1-4 µM
HCT-116 [26] = assay: Decrease in beta-catenin expression in human HCT-116 cells at 1 to 4 uM incubated for 12 hrs by western blotting analysis; type: functional, cell-based; conditions: dose 1-4 µM
HCT-116 [27] = assay: Decrease in Dvl2 expression in human HCT-116 cells at 1 to 4 uM incubated for 12 hrs by western blotting analysis; type: functional, cell-based; conditions: dose 1-4 µM
HCT-116 [28] = assay: Decrease in LRP6 expression in human HCT-116 cells at 1 to 4 uM incubated for 12 hrs by western blotting analysis; type: functional, cell-based; conditions: dose 1-4 µM
HCT-116 [29] = assay: Decrease in WNT-3alpha expression in human HCT-116 cells at 1 to 4 uM incubated for 12hrs by western blotting analysis; type: functional, cell-based; conditions: dose 1-4 µM
HCT-116 [30] = assay: Decrease in beta-catenin/TCF/Lef combination expression in human HCT-116 cells at 1 to 4 uM incubated for 24 hrs by western blotting analysis; type: functional, cell-based; conditions: dose 1-4 µM
HCT-116 [31] = assay: Decrease in beta-catenin/TCF combination expression in human HCT-116 cells transfected with TOPFLASH at 1 to 4 uM incubated for 24 hrs by luciferase assay; type: functional, cell-based; conditions: dose 1-4 µM
HCT-116 [32] = assay: Induction of cell cycle arrest in human HCT-116 cells assessed as increase in cells at G1 phase measured after 48 hrs by flow cytometry; type: functional, cell-based
HCT-116 [33] = assay: Induction of cell cycle arrest in human HCT-116 cells assessed as increase in cells at G2/M phase measured after 48 hrs by flow cytometry; type: functional, cell-based
HCT-116 [34] = assay: Induction of cell cycle arrest in human HCT-116 cells assessed as increase in cells at S phase measured after 48 hrs by flow cytometry; type: functional, cell-based
HCT-116 [35] = assay: Induction of cell cycle arrest in human HCT-116 cells assessed as decrease in p-Rb S780 level incubated for 24 hrs by Western blot analysis; type: functional, cell-based
HCT-116 [36] = assay: Induction of cell cycle arrest in human HCT-116 cells assessed as increase in E2F1 level incubated for 24 hrs by Western blot analysis; type: functional, cell-based
HCT-116 [37] = assay: Antiproliferative activity against sorafenib-resistant human HCT-116 cells assessed as cell viability incubated for 48 hrs by MTT assay; type: functional
HCT-116 [38] = assay: Potency index, ratio of Sorafenib IC50 to test compound IC50 for antiproliferative activity against human HCT-116 cells incubated for 48 hrs by MTT assay; type: functional
HCT-116 [39] = assay: Reduction in P-gp expression in sorafenib-resistant human HCT-116 cells by Western blot analysis; type: functional, cell-based; conditions: dose 1-4 µM, DDE = dose-dependent effect
CT26 [40] = assay: Anticancer activity against mouse CT26 cells transplanted in […] mouse assessed as reduction in tumor growth at 10 to 40 mg/kg, po daily measured after 21 days; type: functional, organism-based; conditions: dose 10-40 mg/kg, time 21.0 day
CT26 [41] = assay: Anticancer activity against mouse CT26 cells transplanted in […] mouse assessed as reduction in tumor volume at 10 to 40 mg/kg, po daily measured after 21 days; type: functional, organism-based; conditions: dose 10-40 mg/kg, time 21.0 day
CT26 [42] = assay: In vivo inhibition of CDK8 in mouse CT26 cells transplanted in […] mouse assessed as downregulation of c-Myc in tumor at 10 to 40 mg/kg, po daily measured after 21 days; type: functional, organism-based; conditions: dose 10-40 mg/kg, time 21.0 day
CT26 [43] = assay: In vivo inhibition of CDK8 in mouse CT26 cells transplanted in […] mouse assessed as upregulation of E2F1 in tumor at 10 to 40 mg/kg, po daily measured after 21 days; type: functional, organism-based; conditions: dose 10-40 mg/kg, time 21.0 day
[44] = biological target: T1, Cyclin-dependent kinase 8; conditions: dose 200.0 nM

T1 sequence (P49336 whole entry): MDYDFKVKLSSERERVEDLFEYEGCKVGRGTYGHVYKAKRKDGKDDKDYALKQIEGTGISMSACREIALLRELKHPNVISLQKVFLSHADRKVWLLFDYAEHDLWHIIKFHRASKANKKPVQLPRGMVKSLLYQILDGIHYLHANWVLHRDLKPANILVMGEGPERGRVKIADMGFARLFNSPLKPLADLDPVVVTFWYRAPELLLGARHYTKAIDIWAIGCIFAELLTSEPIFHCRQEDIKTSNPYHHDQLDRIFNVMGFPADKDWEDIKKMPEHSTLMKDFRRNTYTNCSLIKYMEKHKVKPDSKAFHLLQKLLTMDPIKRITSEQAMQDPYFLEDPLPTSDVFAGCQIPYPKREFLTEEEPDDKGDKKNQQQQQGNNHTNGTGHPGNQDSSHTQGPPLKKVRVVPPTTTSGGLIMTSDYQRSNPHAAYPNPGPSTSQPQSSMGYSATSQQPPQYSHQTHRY
Sequence of Cyclin-dependent kinase 7 (P50613 whole entry): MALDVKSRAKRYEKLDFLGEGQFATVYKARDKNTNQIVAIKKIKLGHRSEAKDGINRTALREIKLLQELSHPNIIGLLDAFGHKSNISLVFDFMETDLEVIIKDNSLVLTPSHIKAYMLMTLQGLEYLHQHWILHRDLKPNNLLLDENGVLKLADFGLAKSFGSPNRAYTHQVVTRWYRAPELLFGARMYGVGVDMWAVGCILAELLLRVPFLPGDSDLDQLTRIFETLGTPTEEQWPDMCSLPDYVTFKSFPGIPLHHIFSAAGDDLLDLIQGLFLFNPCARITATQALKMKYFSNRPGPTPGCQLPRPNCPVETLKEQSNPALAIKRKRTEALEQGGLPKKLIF

Nc1ccc(Oc2ccc(NC(=O)Nc3cccc(C(F)(F)F)c3)cc2)cn1
Activity [1]: Non-Toxic | bioavailability [2]: 31.7% | AUC(0-inf) [3]: 382 ng·h/mL | AUC(0-inf) [4]: 665 ng·h/mL | Cmax [5]: 318 ng/mL | Cmax [6]: 453 ng/mL | MRT [7]: 54 min | Tmax [8]: 48 min | half-life [9]: 66 min | Activity [10]: Non-Toxic | Activity [11]: Non-Toxic | Activity [12]: Non-Toxic | Activity [13]: Non-Toxic | Activity [14]: Non-Toxic | Activity [15]: Non-Toxic | GI50 (CT26 [16]): 5.5 µM | GI50 at 48 h [17]: 62.7 µM | IC50 [18]: 0.0996 µM | Ratio IC50 (Homo sapiens): 2 | Tm [19]: 55 °C | inhibition [20]: Active | inhibition [21]: Active | Activity [22]: Active | Activity (HCT-116 [23]): Active | Activity (HCT-116 [24]): Active | Activity (HCT-116 [25]): Active | Activity (HCT-116 [26]): Active | Activity (HCT-116 [27]): Active | Activity (HCT-116 [28]): Active | Activity (HCT-116 [29]): Active | Activity (HCT-116 [30]): Active | Activity (HCT-116 [31]): Active | Activity (HCT-116 [32]): Active | Activity (HCT-116 [33]): Active | Activity (HCT-116 [34]): Active | Activity (HCT-116 [35]): Active | Activity (HCT-116 [36]): Active | GI50 (HCT-116 [37]): 17.5 µM | Ratio (HCT-116 [38]): 3.6 | Activity (HCT-116 [39]): Dde | Activity (CT26 [40]): Active | Activity (CT26 [41]): Active | Activity (CT26 [42]): Active | Activity (CT26 [43]): Active | inhibition [44]: 73.6%
